Results on twelve compounds are retold here after patent US12129475B2, “Glycoalkaloid metabolism enyzymes (GAMES) and uses thereof” (priority 2017, dated 2024).

For series [1], the system named is tomato GAME25. The experiment in a line: In vitro assay of recombinant tomato GAME25 (Sf9 microsomes, NAD+). In kind it is biochemical, Solanum lycopersicum. Particulars: 100 μM substrate, NAD+ 150 μM, pH 7.4, 37° C., 4 hrs; LC-MS. How it is done:
(§1) For enzyme assay experiments, an additional MS-MS analysis with a collision energy ramp from 20 to 50 eV was performed to identify the structures of the enzymatic reaction products. The solanid-4-en-3-one product was identified based on the comparison of its retention time and MS-MS spectrum to those measured for its corresponding standard. Another three products (tomatid-4-en-3-one, solasod-4-en-3-one and diosgen-4-en-3-one) were putatively assigned as follows: first, elemental composition based on accurate masses and the isotopic pattern was calculated using the MassLynx software. Then the MS-MS fragmentation pattern was analyzed, and the fragments were assigned applying the fragmentation rules for steroid-based compounds.
(§2) Each expression vector construct was co-transfected with the ProGreen GFP linearized baculovirus DNA (AB vector) to generate the recombinant viruses in Spodoptera frugiperda (Sf9) insect cells. Infection efficiency was monitored by fluorescence of recombinant GFP viruses infected cells. Sf9 cells were grown in ESF921, protein free culture medium (Expression Systems). Three days post-infection cells were collected and washed twice in PBS. Microsomal fractions were isolated by suspending the cell pellet in 20 mM potassium phosphate buffer pH 7.25, 20% (v/v) glycerol, 1 mM EDTA and 1 mM DTT. The resuspended cells were sonicated, and the cell debris was removed by centrifugation at 10,000×g for 15 min. The supernatant was further centrifuged at 100,000×g for 60 min. The pellet containing the microsomal fractions was homogenized in lysis buffer. GAME25 was expressed with a myc-tag at the C-terminus. The isolated microsomal fractions were analyzed by SDS-PAGE and immune-blot with c-myc antibodies (A2S Technologies Ltd.).
(§3) The steroidal alkaloid aglycones dehydrotomatidine, solanidine and solasodine as well as their glycosylated forms (i.e. SGAs) α-tomatine, α-solanine, α-chaconine and α-solamargine were used as substrates for GAME25 enzyme assays. In vitro assays for the tomato and potato recombinant GAME25 enzymes were performed as follows: Briefly, microsomal fractions of Sf9 cells expressing tomato or potato GAME25 proteins (0.2 mg total protein was used per reaction) were separately incubated in sodium phosphate buffer (pH 7.4) with 100 μM of each individual substrate (details are mentioned above), DTT (5 mM) and NAD^+ (150 μM) at 37° C. for 4 hrs. The reactions were stopped by addition of 300 μl of 80% methanol and 0.1% formic acid, followed by brief vortex and sonication for 15 min. Finally, the extracts were centrifuged for 15 min at 14,000×g, filtered through 0.22 μm filters, and analyzed by LC-MS (see Plant extracts preparation and targeted profiling of steroidal metabolites section above). Sf9 cells (without the baculovirus vector) microsomes were used in control enzyme reactions.

The test system of the next series is potato GAME25. The experiment in a line: In vitro assay of recombinant potato GAME25 (Sf9 microsomes, NAD+). In kind it is biochemical, Solanum tuberosum. Particulars: 100 μM substrate, NAD+ 150 μM, pH 7.4, 37° C., 4 hrs; LC-MS. How it is done:
as §1, §2, §3

Another series concerns plant cells. Particulars: cited from earlier work.
The next series relates to SlGAME31. The experiment in a line: Enzymatic activity assay of recombinant SlGAME31 (hydroxylation of SA/SGAs). Particulars: full reaction: ketoglutaric acid, ascorbic acid, FeSO4, 20 μM substrate, 30° C., 1 h. In kind it is biochemical, Solanum lycopersicum. How it is done:
(§4) GAME31 was amplified from cDNA (SEQ ID NO: 17) and cloned into pET28 vector by restriction free (RF) cloning as described previously (Unger et al., 2010, J Struct Biol. 172:34-44).
(§5) The resulting plasmids were verified by sequencing and transformed to E. coli BL21 DE3. For isolation of the GAME31-His tagged enzymes, fresh overnight cultures were diluted 1:100 in 1000 ml of LB medium (Formedium) with 50 μg/ml kanamycin and incubated at 37° C. and 250 rpm until an A600 nm of 0.5 was reached. Subsequently, for induction of expression of the recombinant proteins, IPTG was added to a final concentration of […] and the incubation was continued overnight at 16° C. and 250 rpm. Then cells were harvested by centrifugation at 10,000×g and bacteria were lysed by sonication in a buffer (pH 7.4) containing 0.02 M NaH2PO4 0.02 M, 0.5 M NaCl, and SIGMAFAST protease inhibitor tablets (Sigma-Aldrich) and benzonase nuclease (Sigma-Aldrich) according to manufacturer's instructions. Lysed cultures were centrifuged, and the soluble fraction was purified by nickel affinity chromatography which was operated with an AKTA liquid chromatography system (AKTA avant, GE Healthcare) according to the manufacturer's instructions. Proteins were stored at −80° C. until further analysis.
All the SA/SGAs substrates were prepared at a concentration of 1 mg/ml, dissolved in methanol, except dehydrotomatine that was prepared in DMSO. The enzymatic activity was performed according to Kawai et al. (2014) Evolution and diversity of the 2-oxoglutarate-dependent dioxygenase superfamily in plants. Plant J. 78: 328-43. Briefly, the standard full reaction (100 μL) consisted of 10 mM L-ascorbic acid, 10 mM α-ketoglutaric acid, 500 μM FeSO4, 20 μM substrate, 50 mM potassium phosphate buffer (pH 7.5) and purified enzyme. All the components, except the enzyme, were pre-incubated for 10 min at 30° C., after which the reaction was started by addition of the enzyme. After incubation at 30° C. for 1 h, the reaction was stopped by freezing in liquid nitrogen Finally, the reaction was mixed with 300 μL methanol, extracted and analyzed by UPLC-qTOF-MS as described above.

For series [2], the system named is tomato GAME25. The experiment in a line: In vitro assay of purified recombinant tomato GAME25 expressed in E. coli. Particulars: purified enzyme (5 μg), NAD+ cofactor. The format is biochemical, Solanum lycopersicum. How it is done:
as §1
GAME25 and GAME35 genes were cloned into pET28 vector separately and expressed in E. coli BL21 (DE3). Bacterial cells were grown in LB medium at 37° C. When cultures reached A600=0.6, protein expression was induced with 200 μM of isopropyl-1-thio-β-d-galactopyranoside (IPTG) at 15° C. for 24 h. Bacterial cells were lysed by sonication in 50 mM Tris-HCl pH 7.5, 500 mM NaCl, 1 mM PMSF and protease inhibitor cocktail (Calbiochem). An aliquot of whole cell extract was kept for further analysis. […] The whole cell extract and the eluted fractions were analyzed by SDS-PAGE staining with InstatBlue and by Western blot with HRP conjugated anti-His antibodies (Sigma). […]

The next series deals with GAME35. The experiment in a line: GAME35 enzyme assay. Particulars: 150 μM substrate, NADH or NADPH, 30° C., 3 hrs. The format is biochemical, tomato. How it is done: GAME25 and GAME35 genes were cloned into pET28 vector separately and expressed in E. coli BL21 (DE3). Bacterial cells were grown in LB medium at 37° C. When cultures reached A600=0.6, protein expression was induced with 200 μM of isopropyl-1-thio-β-d-galactopyranoside (IPTG) at 15° C. for 24 h. Bacterial cells were lysed by sonication in 50 mM Tris-HCl pH 7.5, 500 mM NaCl, 1 mM PMSF and protease inhibitor cocktail (Calbiochem). An aliquot of whole cell extract was kept for further analysis. Soluble protein was purified using Ni-NTA agarose beads (Adar Biotech) and eluted with 500 mM imidazole in buffer containing 50 mM NaH2PO4 pH-7.5 and 300 mM NaCl. The whole cell extract and the eluted fractions were analyzed by SDS-PAGE staining with InstatBlue and by Western blot with HRP conjugated anti-His antibodies (Sigma).
Purified GAME35 protein (5 μg) was incubated with solanid-4-en-3-one substrate (150 μM), DTT (1 mM), NADH or NADPH (500 μM) in sodium phosphate buffer (pH 7.4) at 30° C. for 3 hrs. The reactions were stopped by addition of 250 μl of 80% methanol and 0.1% formic acid, and followed by brief vortex and sonication for 15 min. Finally, the extracts were centrifuged for 10 min at 13,000×g and filtered through 0.22 μm filters, and analyzed by LC-MS, as described in the section above (plant extracts preparation and targeted profiling of steroidal metabolites). […]

The subject of the next series is SmGAME31. The experiment in a line: Enzymatic activity assay of recombinant SmGAME31 (hydroxylation of SA/SGAs). In kind it is biochemical, Solanum melongena. Particulars: full reaction, 20 μM substrate, 30° C., 1 h. How it is done:
as §4
as §5, with “Lysed cultures were centrifuged, and the soluble fraction was purified by nickel affinity chromatography which was operated with an AKTA liquid chromatography system (AKTA avant, GE Healthcare) according to the manufacturer's instructions. Proteins were stored at −80° C. until further analysis.” left out
All the SA/SGAs substrates were prepared at a concentration of 1 mg/ml, dissolved in methanol, except dehydrotomatine that was prepared in DMSO. […] After incubation at 30° C. for 1 h, the reaction was stopped by freezing in liquid nitrogen Finally, the reaction was mixed with 300 μL methanol, extracted and analyzed by UPLC-qTOF-MS as described above.

With `CC(C)CCC[C@@H](C)[C@H]1CC[C@H]2[C@@H]3CC=C4C[C@@H](O)CC[C@]4(C)[C@H]3CC[C@]12C` [cholesterol], the “activity with substrate / product formed” value in the series on tomato GAME25 [1] and in the series on potato GAME25 was “not reactive” in each case.

Take `C[C@H]1CC[C@]2(NC1)O[C@H]1C[C@H]3[C@@H]4CC=C5C[C@@H](O)CC[C@]5(C)[C@H]4CC[C@]3(C)[C@H]1[C@@H]2C` [dehydrotomatidine]: the “toxicity to plant cells” value with plant cells is “highly toxic”. The “activity with substrate / product formed” value with tomato GAME25 [1] and in the series on potato GAME25 was “tomatid-4-en-3-one” in each case.

For the compound `C[C@H]1CC[C@]2(NC1)O[C@H]1C[C@H]3[C@@H]4CC=C5C[C@@H](O[C@@H]6O[C@H](CO)[C@H](O[C@@H]7O[C@H](CO)[C@@H](O)[C@H](O[C@@H]8OC[C@@H](O)[C@H](O)[C@H]8O)[C@H]7O[C@@H]7O[C@H](CO)[C@@H](O)[C@H](O)[C@H]7O)[C@H](O)[C@H]6O)CC[C@]5(C)[C@H]4CC[C@]3(C)[C@H]1[C@@H]2C` [dehydrotomatine], the hydroxylation of substrate entry with SlGAME31 is “did perform hydroxylation”. The “activity with substrate / product formed” value in the series with tomato GAME25 [1] and in the series on potato GAME25 was “no activity” in each case.

Turning to `C[C@@H]1CC[C@@]2(OC1)O[C@H]1C[C@H]3[C@@H]4CC=C5C[C@@H](O)CC[C@]5(C)[C@H]4CC[C@]3(C)[C@H]1[C@@H]2C` [diosgenin], the “product formed from substrate” value with tomato GAME25 [2] is on record as “diosgen-4-en-3-one”.

For `C[C@H]1CC[C@@H]2[C@@H](C)C3C(CC4C5CCC6=CC(=O)CCC6(C)C5CCC43C)N2C1` (stereo partly shown) [solanid-4-en-3-one], the activity with substrate result in the series on GAME35 is reported as “did not react”.

Turning to `C[C@H]1CC[C@@H]2[C@@H](C)[C@H]3[C@H](C[C@H]4[C@@H]5CC=C6C[C@@H](O)CC[C@]6(C)[C@H]5CC[C@]34C)N2C1` [solanidine], the “product formed from substrate” value with tomato GAME25 [2] is “solanid-4-en-3-one”. The “activity with substrate / product formed” value in the series with tomato GAME25 [1] and in the series with potato GAME25 was “solanid-4-en-3-one” throughout.

As to `C[C@@H]1CC[C@@]2(NC1)O[C@H]1C[C@H]3[C@@H]4CC=C5C[C@@H](O)CC[C@]5(C)[C@H]4CC[C@]3(C)[C@H]1[C@@H]2C` [solasodine], the “activity with substrate / product formed” value with tomato GAME25 [1] and with potato GAME25 was “solasod-4-en-3-one” throughout.

For the compound `C[C@H]1CC[C@]2(NC1)O[C@H]1C[C@H]3[C@@H]4CC[C@H]5C[C@@H](O)CC[C@]5(C)[C@H]4CC[C@]3(C)[C@H]1[C@@H]2C` [tomatidine], the values for the hydroxylation of substrate result in the series on SlGAME31 and in the series with SmGAME31 were “did not show activity” and “did not hydroxylate”, respectively. Besides, in the series with plant cells, the “toxicity to plant cells” value is “highly toxic”.

With `C[C@H]1CC[C@@H]2[C@@H](C)[C@H]3[C@H](C[C@H]4[C@@H]5CC=C6C[C@@H](O[C@@H]7O[C@H](CO)[C@H](O[C@@H]8O[C@@H](C)[C@H](O)[C@@H](O)[C@H]8O)[C@H](O)[C@@H]7O[C@@H]7O[C@@H](C)[C@@H](O)[C@@H](O)[C@H]7O)CC[C@]6(C)[C@H]5CC[C@]34C)N2C1` [α-chaconine], the “activity with substrate / product formed” value in the series on tomato GAME25 [1] and in the series on potato GAME25 was “no activity” in each case.

On to `C[C@@H]1CC[C@@]2(NC1)O[C@H]1C[C@H]3[C@@H]4CC=C5C[C@@H](O[C@@H]6O[C@H](CO)[C@@H](O[C@@H]7O[C@@H](C)[C@H](O)[C@@H](O)[C@H]7O)[C@H](O)[C@H]6O[C@@H]6O[C@@H](C)[C@H](O)[C@@H](O)[C@H]6O)CC[C@]5(C)[C@H]4CC[C@]3(C)[C@H]1[C@@H]2C` [α-solamargine], for which the hydroxylation of substrate result in the series on SlGAME31 is “generating hydroxysolamargine”; in the series with SmGAME31, “performed hydroxylation”. In addition, the “activity with substrate / product formed” value with tomato GAME25 [1] and with potato GAME25 was “no activity” each time.

Consider `C[C@H]1CC[C@@H]2[C@@H](C)[C@H]3[C@H](C[C@H]4[C@@H]5CC=C6C[C@@H](O[C@@H]7O[C@H](CO)[C@H](O)[C@H](O[C@@H]8O[C@H](CO)[C@@H](O)[C@H](O)[C@H]8O)[C@H]7O[C@@H]7O[C@@H](C)[C@H](O)[C@@H](O)[C@H]7O)CC[C@]6(C)[C@H]5CC[C@]34C)N2C1` [α-solanine], for which the “activity with substrate / product formed” value with tomato GAME25 [1] and in the series with potato GAME25 was “no activity” each time.

As to cholestenol, the “activity with substrate / product formed” value in the series on tomato GAME25 [1] and with potato GAME25 was “not reactive” in each case.
